Measurements from the supplement of paper PMC11208160.

Test: recombinant UMI read abundance after kanamycin selection (control-corrected) (log10(CPM+1)); higher = more efficient recombination; extreme values may be limits of the assay; sequences stand for … in AGTGCAGAGAAAATCGGCCAGTTTTCTCTGCCTGCAGTCCGCATGCCGTGGGACCCCTTGGGTTCTAACCTGTTGCCTAGATTTATGCAGCGGACTGCCTTTCTCCCAAAGTGATAAACCGG…AGGTTGGTTTCACT; site = the 11-nt donor
How it was run: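 The measure is log10(CPM+1) for recombinant UMIs. These were PCR-amplified across the donor–target junction and sequenced after Escherichia coli carrying a donor and donor-binding-loop pair library and a target plasmid with T7-inducible IS621 bridge recombinase was plated on IPTG (0.07 mM) plus kanamycin or unselected. CPM were averaged over two replicates and scaled by control-derived factors.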
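Also: IS621 bridge recombinase in Escherichia coli cells against a fixed T5 target plasmid.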

Sequence	recombinant UMI read abundance (log10)
AGGTGCCCATGGACCGGTTTTCCCGGTAATCCGTATTTGTG (site AGGTTCCCTCA)	0.755
AGGTGGTCATGGACCGGTTTTCCCGGTAATCCGTATTTGCA (site AGGTGGTCTTG)	2.62
AGGTTCCCATGGACCGGTTTTCCCGGTAATCCGTATTTGAG (site AGGTTCCCTCA)	0
AGGTTCCCATGGACCGGTTTTCCCGGTAATCCGTATTTGAG (site AGGTTCCCTCC)	0.0175
AGGTTCCCATGGACCGGTTTTCCCGGTAATCCGTATTTGAG (site AGGTTCCCTCG)	0.00792
AGGTTCCCATGGACCGGTTTTCCCGGTAATCCGTATTTGAG (site AGGTTCCCTCT)	0.00255
AGGTTCCCATGGACCGGTTTTCCCGGTAATCCGTATTTGTC (site AGGTTCCCTAA)	0.0146
AGGTTCCCATGGACCGGTTTTCCCGGTAATCCGTATTTGTC (site AGGTTCCCTCA)	0.0034
AGGTTCCCATGGACCGGTTTTCCCGGTAATCCGTATTTGTC (site AGGTTCCCTGA)	0
AGGTTCCCATGGACCGGTTTTCCCGGTAATCCGTATTTGTC (site AGGTTCCCTTA)	0
AGGTTCCCATGGACCGGTTTTCCCGGTAATCCGTATTTGTG (site AAGTTCCCTCA)	0.0108
AGGTTCCCATGGACCGGTTTTCCCGGTAATCCGTATTTGTG (site ACGTTCCCTCA)	0.0097
AGGTTCCCATGGACCGGTTTTCCCGGTAATCCGTATTTGTG (site AGATTCCCTCA)	0.438
AGGTTCCCATGGACCGGTTTTCCCGGTAATCCGTATTTGTG (site AGCTTCCCTCA)	0.0211
AGGTTCCCATGGACCGGTTTTCCCGGTAATCCGTATTTGTG (site AGGATCCCTCA)	0.163
AGGTTCCCATGGACCGGTTTTCCCGGTAATCCGTATTTGTG (site AGGCTCCCTCA)	0.149
AGGTTCCCATGGACCGGTTTTCCCGGTAATCCGTATTTGTG (site AGGGTCCCTCA)	0.0158
AGGTTCCCATGGACCGGTTTTCCCGGTAATCCGTATTTGTG (site AGGTACCCTCA)	0.00814
AGGTTCCCATGGACCGGTTTTCCCGGTAATCCGTATTTGTG (site AGGTCCCCTCA)	0.019

Sequence	recombinant UMI read abundance (log10)
AGGTTCCCATGGACCGGTTTTCCCGGTAATCCGTATTTGTG (site AGGTGCCCTCA)	0.018
AGGTTCCCATGGACCGGTTTTCCCGGTAATCCGTATTTGTG (site AGGTTACCTCA)	0.00985
AGGTTCCCATGGACCGGTTTTCCCGGTAATCCGTATTTGTG (site AGGTTCACTCA)	0.0115
AGGTTCCCATGGACCGGTTTTCCCGGTAATCCGTATTTGTG (site AGGTTCCCTAA)	0.00843
AGGTTCCCATGGACCGGTTTTCCCGGTAATCCGTATTTGTG (site AGGTTCCCTCA)	0.152
AGGTTCCCATGGACCGGTTTTCCCGGTAATCCGTATTTGTG (site AGGTTCCCTCC)	0.014
AGGTTCCCATGGACCGGTTTTCCCGGTAATCCGTATTTGTG (site AGGTTCCCTCG)	0.328
AGGTTCCCATGGACCGGTTTTCCCGGTAATCCGTATTTGTG (site AGGTTCCCTCT)	0.0108
AGGTTCCCATGGACCGGTTTTCCCGGTAATCCGTATTTGTG (site AGGTTCCCTGA)	0
AGGTTCCCATGGACCGGTTTTCCCGGTAATCCGTATTTGTG (site AGGTTCCCTTA)	0
AGGTTCCCATGGACCGGTTTTCCCGGTAATCCGTATTTGTG (site AGGTTCGCTCA)	0.0252
AGGTTCCCATGGACCGGTTTTCCCGGTAATCCGTATTTGTG (site AGGTTCTCTCA)	0.634
AGGTTCCCATGGACCGGTTTTCCCGGTAATCCGTATTTGTG (site AGGTTGCCTCA)	0.0234
AGGTTCCCATGGACCGGTTTTCCCGGTAATCCGTATTTGTG (site AGGTTTCCTCA)	0.00972
AGGTTCCCATGGACCGGTTTTCCCGGTAATCCGTATTTGTG (site AGTTTCCCTCA)	0.0518
AGGTTCCCATGGACCGGTTTTCCCGGTAATCCGTATTTGTG (site ATGTTCCCTCA)	0.0101
AGGTTCCCATGGACCGGTTTTCCCGGTAATCCGTATTTGTG (site CGGTTCCCTCA)	0.0101
AGGTTCCCATGGACCGGTTTTCCCGGTAATCCGTATTTGTG (site GGGTTCCCTCA)	0.0086
AGGTTCCCATGGACCGGTTTTCCCGGTAATCCGTATTTGTG (site TGGTTCCCTCA)	0.00656

Sequence	recombinant UMI read abundance (log10)
AGTAAGGCATGGACCGGTTTTCCCGGTAATCCGTATTTGAT (site AGTAAGGCTAT)	2.27
AGTAATTCATGGACCGGTTTTCCCGGTAATCCGTATTTGAC (site AGTAATTCTGT)	0.17
AGTACACCATGGACCGGTTTTCCCGGTAATCCGTATTTGAG (site AGTACACCTCT)	0.0245
AGTAGCCCATGGACCGGTTTTCCCGGTAATCCGTATTTGGA (site AGTAGCCCTTC)	0.01
AGTCCATCATGGACCGGTTTTCCCGGTAATCCGTATTTGGG (site AGTCCATCTCC)	0.00252
AGTCCCACATGGACCGGTTTTCCCGGTAATCCGTATTTGGA (site AGTCCCACTTC)	0.296
AGTCCTTCATGGACCGGTTTTCCCGGTAATCCGTATTTGGG (site AGTCCTTCTCC)	0.0141
AGTCTAGCATGGACCGGTTTTCCCGGTAATCCGTATTTGTT (site AGACTAGCTAA)	0.0182
AGTCTAGCATGGACCGGTTTTCCCGGTAATCCGTATTTGTT (site AGCCTAGCTAA)	0.0159
AGTCTAGCATGGACCGGTTTTCCCGGTAATCCGTATTTGTT (site AGGCTAGCTAA)	0.0213
AGTCTAGCATGGACCGGTTTTCCCGGTAATCCGTATTTGTT (site AGTCTAGCTAA)	0.0147
AGTCTGACATGGACCGGTTTTCCCGGTAATCCGTATTTGGA (site AGTCTGACTTC)	0.729
AGTCTTTCATGGACCGGTTTTCCCGGTAATCCGTATTTGAC (site AGACTTTCTGT)	0
AGTCTTTCATGGACCGGTTTTCCCGGTAATCCGTATTTGAC (site AGCCTTTCTGT)	0.743
AGTCTTTCATGGACCGGTTTTCCCGGTAATCCGTATTTGAC (site AGGCTTTCTGT)	0
AGTCTTTCATGGACCGGTTTTCCCGGTAATCCGTATTTGAC (site AGTCTTTCTGT)	0
AGTGACTCATGGACCGGTTTTCCCGGTAATCCGTATTTGCG (site AGTGACTCTCG)	2.88
AGTGAGACATGGACCGGTTTTCCCGGTAATCCGTATTTGGG (site AGTGAGACTCC)	0.00984
AGTGATCCATGGACCGGTTTTCCCGGTAATCCGTATTTGGT (site AGTGATCCTAC)	0.0964
